Laboratory results from PubChem BioAssay AID179 (DTP/NCI, 2004).
Active and inactive are the calls of the source.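 The calls were made as follows: active = compounds giving half or more protection of infected cells from virus-caused growth loss, again on retest; inactive = the rest.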 Where a SMILES comes first, the peptide text is derived from it.

Test system: CEM cells HIV-1 protection, formazan growth assay
Assay: NCI AIDS Antiviral Assay
Conditions: for IC50: measured here: growth of uninfected CEM cells
Method in brief: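 Category rules: moderately active means at least 50% protection on retest, and confirmed active means 100% protection reproducibly. The underlying data came from a formazan growth assay in HIV-1-infected CEM cells.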

## CN(C)C(=O)Nc1c([N+](=O)[O-])cc(C(F)(F)F)cc1[N+](=O)[O-]
  outcome: inactive

## Cc1cc2cc3ccc(Cl)nn3c2nn1
  EC50: > 200 µM
  IC50: > 200 µM

## CCCCCC(=O)C(C)C1=Nc2nnc(CCCCCCCc3nnc4n3C(=O)C(C(C)C(=O)CCCCC)=N4)n2C1=O (stereo not given)
  EC50: > 2.45 µM
  IC50: > 2.45 µM

## Cc1nn(C(=O)Cc2ccccc2)c2c1C(c1ccc(O)cc1)SC(N)=N2 (stereo not given)
  EC50: 83.2 µM
  IC50: > 200 µM

## COc1ccc2nc(-c3ccccc3)cc(N=[N+]=[N-])c2c1
  outcome: inactive

## O=C1CN(c2ccccc2)C(=O)CN1NCNN1CC(=O)N(c2ccccc2)CC1=O
  EC50: > 200 µM
  IC50: > 200 µM

## O=C1c2ccccc2C(=O)c2c(Nc3cccc4c3C(=O)c3ccccc3C4=O)cccc21
  EC50: > 200 µM
  IC50: > 200 µM

## O=C(Nc1cc(Cl)c(Cl)cc1Cl)C(=O)C(C(=O)c1ccc2ccccc2c1)C1OC(=O)c2ccccc21 (stereo not given)
  EC50: > 64.6 µM
  IC50: 31.6 µM

## CC(C)(C)[Si](C)(C)OCC1OC(n2cnc3c(=O)[nH]c(N)nc32)C(O[Si](C)(C)C(C)(C)C)C1O[Si](C)(C)C(C)(C)C (stereo not given)
  EC50: > 200 µM
  IC50: 4.17 µM

## CCCCCCCCCCCC(=O)OCCOCCOCCOCCOCCOCc1ccccc1
  outcome: inactive

## CC(=O)/C(=N\Nc1ccc(Cl)cc1)C(C)=Nc1ccc(C)cc1
  EC50: > 200 µM
  IC50: 30.2 µM

## CC(C)(C)c1cc(C2c3cc4c(cc3OC(O)(CO)C2C(=O)O)OCO4)cc(C(C)(C)C)c1O (stereo not given) (tested in a mixture with another compound)
  outcome: inactive

## Cc1ccc(/C=C2\CNC/C(=C\c3ccc(C)cc3)C2=O)cc1
  EC50: > 3.98 µM
  IC50: > 3.98 µM

## COc1cc(OC)c2c(c1)OC(=O)C(C(C)=O)C2 (stereo not given)
  EC50: > 200 µM
  IC50: > 200 µM

## CN/N=C(\C(=O)Nc1ccc([N+](=O)[O-])cc1[N+](=O)[O-])C1NC(=O)NC1=O (stereo not given)
  EC50: > 66.1 µM
  IC50: > 66.1 µM

## COc1ccc(-c2c(C)oc(=O)c(NC(=O)c3ccccc3)c2C)cc1
  EC50: > 200 µM
  IC50: 57.5 µM

## O=C1c2ccccc2C(=O)N1N1CC1Br (stereo not given)
  EC50: > 200 µM
  IC50: > 200 µM

## Cc1ccc(N=C2SC(=S)N(CCC[N+](C)(C)C)C2=Nc2ccc(C)cc2)cc1
  EC50: > 200 µM
  IC50: 14.1 µM

## Cc1ccccc1N=Nc1c(S(=O)(=O)O)cc2cc(NC(=O)Nc3ccc4c(O)c(N=Nc5ccc6cc(S(=O)(=O)O)ccc6c5)c(S(=O)(=O)O)cc4c3)ccc2c1O
  outcome: active

## CCCCCCCCCC(=O)OCC1OC(n2cc(F)c(=O)[nH]c2=O)C(NC(=O)OCc2ccccc2)C(OC(=O)CCCCCCCCC)C1O (stereo not given)
  EC50: > 9.77 µM
  IC50: > 9.77 µM

## CC1=C(C(=O)Nc2cc(F)c(F)cc2F)C(c2cccc([N+](=O)[O-])c2)C(C(=O)Nc2ccccc2C(F)(F)F)=C(C)N1 (stereo not given)
  EC50: > 43.7 µM
  IC50: > 43.7 µM

## CN(C)c1ccc2nc3c(cc(Nc4cccc5cccc(Nc6cc7ccccc7c7nc8ccc(N(C)C)cc8[o+]c67)c45)c4ccccc43)[o+]c2c1
  EC50: > 100 µM
  IC50: 15.1 µM

## Cc1ccc2c(c1)C(=O)CC=C(C(=O)O)N2
  EC50: > 200 µM
  IC50: > 200 µM

## COc1ccc(C(=O)N2CCN(c3ccc4[nH]c(=O)oc4c3)CC2)cc1
  EC50: > 200 µM
  IC50: > 200 µM

## O=c1ccc2ccccc2c2ccccc12
  EC50: > 117 µM
  IC50: 1.66 µM

## COCCCCCCCCCCCC(=O)OCC1OC(n2cc(C)c(=O)[nH]c2=O)CC1F (stereo not given)
  EC50: 0.0112 µM
  IC50: 0.2 µM

## O=C(O)c1cccc2cccc(-c3c4ccc(=O)cc-4oc4cc(O)ccc34)c12
  EC50: 14.1 µM
  IC50: 123 µM

## CC(=O)Nc1ccc(-c2nnc(SCC(=O)Nc3ccccc3Cl)o2)cc1
  EC50: > 46.8 µM
  IC50: > 46.8 µM

## Cc1cc(O)c(/C=N/c2nc(-c3cccc([N+](=O)[O-])c3)cs2)c(=O)o1
  EC50: > 200 µM
  IC50: 35.5 µM

## BrC(=C(c1ccc(OC2CCCCO2)cc1)c1ccc(OC2CCCCO2)cc1)c1ccccc1 (stereo not given)
  EC50: 70.8 µM
  IC50: > 200 µM

## COC1/C=C/C=C/C=C/CC(OC(=O)C(C)NC(=O)C2CCCCC2)C(C)C(O)/C(C)=C\CCc2c(O)c(cc3c2SCC(=O)N3)NC(=O)C1 (stereo not given)
  EC50: > 2 µM
  IC50: 0.229 µM

## CCC1=C(OC)c2nccc(C)c2C(=O)C1=O
  outcome: inactive

## C/C(CC(O)(C(F)(F)F)C(F)(F)F)=N\NC(N)=O
  EC50: > 200 µM
  IC50: > 200 µM

## CCOC(=O)C(O)(NC(=O)NC(O)(C(=O)OCC)C(F)(F)F)C(F)(F)F (stereo not given)
  EC50: > 200 µM
  IC50: > 200 µM

## CN(C)CCNC(=O)c1ccc(Cl)c2c(Nc3ccc(S(N)(=O)=O)cc3)c3ccccc3nc12
  outcome: inactive

## O=C(OCC1OC(n2nc(Cn3nnc(-c4cccnc4)n3)n(-c3cccc4ccccc34)c2=S)C(OC(=O)c2ccccc2)C1OC(=O)c1ccccc1)c1ccccc1 (stereo not given)
  EC50: > 100 µM
  IC50: > 100 µM

## CCOC(=O)C1C(=O)CC(C)(O)C(C(=O)OCC)C1c1ccc(O)c(OC)c1 (stereo not given)
  EC50: > 200 µM
  IC50: > 200 µM

## CCCCCCCCCCCCCCCCCCC1=C(O)C(=O)C=C(OC)C1=O
  EC50: > 200 µM
  IC50: 49 µM

## CC12CCC([C@H](Nc3cc(C(F)(F)F)cc(C(F)(F)F)c3)C1=O)C2(C)C (stereo not given in full)
  EC50: > 20 µM
  IC50: > 20 µM

## CCOC(=O)NC1=NCC(C)(C)S1
  outcome: inactive

## CC(=O)Oc1ccc(Nn2c3ccccc3c3ccccc32)c(C)c1
  EC50: > 200 µM
  IC50: 11.7 µM

## Cc1[nH]c(=O)[nH]c1C(=O)c1ccc(-n2ccnc2)cc1
  EC50: > 14.1 µM
  IC50: > 14.1 µM

## COC1OC2C(CO)OC(n3ncc4c3ncn3cnnc43)C2O1 (stereo not given)
  EC50: > 234 µM
  IC50: > 234 µM

## Cc1nc2ccc(Cl)cc2c(-n2ccnc2)c1CCn1ccnc1
  EC50: > 200 µM
  IC50: 89.1 µM

## CC(=O)C1=C(O)C2(O)C(=O)c3c(c(C)c4ccc(C)c(O)c4c3O)CC2C(N)C1=O (stereo not given)
  EC50: > 53.7 µM
  IC50: 3.55 µM

## N#CC(N)(C(=O)CCC(=O)Nc1cccc(Cl)c1)c1ccc(Cl)cc1 (stereo not given)
  EC50: > 661 µM
  IC50: > 661 µM

## COc1ccccc1N1C(=O)/C(=C\c2cc(OC)c(OC)c(OC)c2)S(=O)(=O)C1c1ccccc1 (stereo not given)
  EC50: > 200 µM
  IC50: 38 µM

## O=C1c2ccc([N+](=O)[O-])cc2C(=O)N1CC[P+](c1ccccc1)(c1ccccc1)c1ccccc1
  EC50: > 200 µM
  IC50: > 200 µM

## COc1cc([N+](=O)[O-])c(S(=O)(=O)O)cc1NS(=O)(=O)c1ccc(C)cc1
  EC50: > 200 µM
  IC50: > 200 µM

## CCOC(=O)C1(C/C=C/CBr)CCc2ccccc2C1=O (stereo not given)
  EC50: > 200 µM
  IC50: 2.14 µM

## Cc1nnc(N)nc1/C=C\c1cccs1
  EC50: > 200 µM
  IC50: 5.5 µM

## O=C1C2=Cc3ccccc3CCN2c2ccc([N+](=O)[O-])cc21
  EC50: > 200 µM
  IC50: 166 µM

## CCOC(=O)C1=C(C)N(NC(N)=O)C2(N)N(NC(N)=O)C(C)=C(C(=O)OCC)C12C#N (stereo not given)
  EC50: > 575 µM
  IC50: 427 µM

## CC(C)=CCC/C(C)=C/Cc1cc(O)c(Br)cc1O
  EC50: > 145 µM
  IC50: 24 µM

## CN(C)c1ccc(/C=C(/C#N)c2ccc(Cl)cc2)cc1
  EC50: > 100 µM
  IC50: 1.23 µM

## NC(=O)CNC(=O)[C@@H]1CC(OCCC(=O)O)CN1C(=O)C1CCCN1C(=O)OCc1ccccc1 (stereo not given in full)
  EC50: > 200 µM
  IC50: > 200 µM

## Nc1ccn(C2CC(F)C(CO)O2)c(=O)n1 (stereo not given)
  EC50: 0.148 µM
  IC50: 427 µM

## CC1(C)CC(=O)C2=C(C1)S/C(=C1/SC3=C(S1)C(=O)CC(C)(C)C3)S2
  EC50: > 6.92 µM
  IC50: > 6.92 µM

## C=C1CC(Cn2cc(Br)c(=O)[nH]c2=O)(c2ccc(-c3ccccc3)cc2)OC1=O (stereo not given)
  EC50: > 20 µM
  IC50: 0.457 µM

## O=[N+]([O-])c1cccc(/C=N/Nc2ccc(S(=O)(=O)O)cc2)c1
  EC50: > 724 µM
  IC50: 646 µM

## Cc1cc(S(=O)(=O)Nc2nc(N)nc(N3CCOCC3)n2)c(SCC(=O)O)cc1Cl
  EC50: > 200 µM
  IC50: > 200 µM

## O=[N+]([O-])c1cc(I)cc(/C=N/NS(=O)(=O)c2ccc(F)cc2)c1O
  EC50: > 389 µM
  IC50: 67.6 µM

## c1ccc2c(c1)C1CCC2c2ccccc21
  EC50: > 200 µM
  IC50: > 200 µM

## N#CC(/C(=N/NC(=O)C(=O)NN)C(=O)NC12CC3CC(CC(C3)C1)C2)c1ccccc1 (stereo not given)
  EC50: > 155 µM
  IC50: > 155 µM

## Clc1ccc(OCCSCCCCCCCCCCSCCOc2ccc(Cl)cc2)cc1
  EC50: > 7.24 µM
  IC50: > 7.24 µM

## NC1=NCCC1(c1ccccc1)c1ccccn1 (stereo not given)
  EC50: > 550 µM
  IC50: 490 µM

## C=CCOc1ccc(/C(N=Nc2ccc([N+](=O)[O-])cc2)=N/NC(=O)c2ccccc2)cc1OC
  EC50: > 200 µM
  IC50: 178 µM

## N#C/C(=C\n1c(=S)[nH]c2ccc([N+](=O)[O-])cc21)C(=O)c1ccc2ccccc2c1
  EC50: > 200 µM
  IC50: > 200 µM

## CCCCc1ccc(C(=O)O)nc1
  outcome: inactive

## CCC(C)C(NC(=O)C(CCCN=C(N)N)NC(=O)C(CC(N)=O)NC(=O)C(Cc1cnc[nH]1)NC(=O)C(N)CC(C)C)C(=O)NC(C(=O)NC(CC(C)C)C(=O)NCC(=O)NC(CC(N)=O)C(=O)O)C(C)CC (stereo not given) (H-LHNRIILGN-OH; configuration not given here)
  EC50: > 47.9 µM
  IC50: > 47.9 µM

## CCCCCCCCCCCCC(=O)CCCCC(=O)O
  outcome: inactive

## Cc1ccc(NC(=O)CCc2cc(C(C)(C)C)nc(=S)[nH]2)cc1C
  EC50: > 724 µM
  IC50: 398 µM

## CC(C)(C)COC(=O)C(C)(C)NC(=O)C(CC(=O)OCc1ccccc1)NC(=O)OCc1ccccc1 (stereo not given)
  EC50: > 200 µM
  IC50: 19.1 µM

## CCOP(=O)(OCC)C(c1ccc(F)cc1)N(C(=O)NC(F)(F)F)c1ccc(OC)cc1 (stereo not given)
  EC50: > 200 µM
  IC50: > 200 µM

## O=C(N/N=C/c1cccc2ccccc12)c1cccnc1
  EC50: > 200 µM
  IC50: 112 µM

## COc1cc(OS(=O)(=O)O)c2c(c1)cc(O)c1c(=O)cc(C)oc12
  EC50: > 151 µM
  IC50: > 151 µM

## C=C(C)[C@@H]1CCC2=C[C@@H](OC2=O)[C@@H](C(=C)C)C2=CC(C(=O)O)=C(C1)O2
  EC50: > 200 µM
  IC50: 91.2 µM

## O=C1C=C(N2CC2)C(=O)C=C1N1CC1
  EC50: > 0.2 µM
  IC50: 0.0141 µM

## S=C(NC1CCCCC1)SSSC(=S)NC1CCCCC1
  EC50: > 200 µM
  IC50: 27.5 µM

## CC(O)c1ccc(C(O)/C(=N\NC(=O)c2ccncc2)c2nc3ccc([N+](=O)[O-])cc3[nH]c2=O)cc1 (stereo not given)
  EC50: > 74.1 µM
  IC50: 60.3 µM
